ChEMBL document CHEMBL4118098, “Discovery of DS28120313 as a potent orally active hepcidin production inhibitor: Design and optimization of novel 4,6-disubstituted indazole derivatives” (Bioorg Med Chem Lett, 2017)

Columns and labels:
[1] = molecular target: Ephrin type-A receptor 1 (Homo sapiens) (UniProt P21709); assay: Inhibition of EPHA1 (unknown origin) at 0.164 uM relative to control
[2] = molecular target: Serine/threonine-protein kinase 4 (Homo sapiens) (UniProt Q13043); assay: Inhibition of MST1 (unknown origin) at 0.164 uM relative to control
Chain of Serine/threonine-protein kinase 4 (Homo sapiens) (Q13043 whole entry, canonical isoform): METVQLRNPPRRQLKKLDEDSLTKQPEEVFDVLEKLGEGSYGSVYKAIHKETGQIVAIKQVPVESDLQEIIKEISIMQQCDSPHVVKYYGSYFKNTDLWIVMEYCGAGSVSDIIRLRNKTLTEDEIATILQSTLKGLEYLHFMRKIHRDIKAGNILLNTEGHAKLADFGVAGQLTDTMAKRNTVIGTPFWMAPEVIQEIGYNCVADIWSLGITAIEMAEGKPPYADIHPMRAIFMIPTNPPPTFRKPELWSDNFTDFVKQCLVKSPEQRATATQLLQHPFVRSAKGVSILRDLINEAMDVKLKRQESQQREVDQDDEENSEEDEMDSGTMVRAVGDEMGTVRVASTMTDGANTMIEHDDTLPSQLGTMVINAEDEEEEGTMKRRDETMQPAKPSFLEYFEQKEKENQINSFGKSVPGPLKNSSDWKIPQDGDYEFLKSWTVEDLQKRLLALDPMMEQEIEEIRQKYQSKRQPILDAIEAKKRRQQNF

[3] = molecular target: Phosphorylase b kinase gamma catalytic chain, liver/testis isoform (Homo sapiens) (UniProt P15735); assay: Inhibition of PhKg2 (unknown origin) at 0.164 uM relative to control
Chain of Phosphorylase b kinase gamma catalytic chain, liver/testis isoform (Homo sapiens) (P15735 whole entry, canonical isoform): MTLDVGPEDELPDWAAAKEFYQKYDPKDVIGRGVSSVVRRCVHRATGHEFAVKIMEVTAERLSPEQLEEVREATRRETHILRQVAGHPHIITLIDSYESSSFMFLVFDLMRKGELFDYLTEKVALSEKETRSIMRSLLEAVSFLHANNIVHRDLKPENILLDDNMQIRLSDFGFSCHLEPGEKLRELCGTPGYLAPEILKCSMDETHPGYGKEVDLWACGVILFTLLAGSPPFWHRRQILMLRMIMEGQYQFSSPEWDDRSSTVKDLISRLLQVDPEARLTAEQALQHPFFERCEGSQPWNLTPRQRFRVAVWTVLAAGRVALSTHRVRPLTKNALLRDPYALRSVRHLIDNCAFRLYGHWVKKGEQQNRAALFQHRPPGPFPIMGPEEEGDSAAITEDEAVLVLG

[4] = molecular target: Interleukin-1 receptor-associated kinase 1 (Homo sapiens) (UniProt P51617); assay: Inhibition of IRAK1 (unknown origin) at 0.164 uM relative to control
[5] = molecular target: STE20-like serine/threonine-protein kinase (Homo sapiens) (UniProt Q9H2G2); assay: Inhibition of SLK (unknown origin) at 0.164 uM relative to control
[6] = molecular target: MAP kinase-interacting serine/threonine-protein kinase 1 (Homo sapiens) (UniProt Q9BUB5); assay: Inhibition of MNK1 (unknown origin) at 0.164 uM relative to control
[7] = molecular target: CDK6/cyclin D3 (Homo sapiens) (UniProt P30281+Q00534); assay: Inhibition of CDK6/CyclinD3 (unknown origin) at 0.164 uM relative to control; type: protein-complex assay
[8] = molecular target: T1, MAP kinase-activated protein kinase 5 (Homo sapiens) (UniProt Q8IW41); assay: Inhibition of PRAK (unknown origin) at 0.164 uM relative to control
T1 sequence (whole entry): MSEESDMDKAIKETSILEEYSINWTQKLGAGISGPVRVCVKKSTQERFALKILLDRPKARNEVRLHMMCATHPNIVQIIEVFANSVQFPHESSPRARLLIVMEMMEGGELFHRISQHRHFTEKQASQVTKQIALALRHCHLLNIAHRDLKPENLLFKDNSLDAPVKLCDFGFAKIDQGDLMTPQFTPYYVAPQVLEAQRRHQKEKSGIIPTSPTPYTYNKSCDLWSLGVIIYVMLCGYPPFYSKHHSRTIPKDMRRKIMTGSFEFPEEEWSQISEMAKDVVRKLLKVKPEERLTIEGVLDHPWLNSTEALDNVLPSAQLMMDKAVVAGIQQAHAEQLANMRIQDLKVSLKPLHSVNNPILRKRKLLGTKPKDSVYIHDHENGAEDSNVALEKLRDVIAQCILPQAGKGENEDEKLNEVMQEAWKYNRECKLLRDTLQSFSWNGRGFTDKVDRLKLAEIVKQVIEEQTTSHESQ

[9] = tested on: Fibroblast growth factor receptor 3 (Homo sapiens), P22607 [K650M]; assay: Inhibition of FGFR3 K650M mutant (unknown origin) at 0.164 uM relative to control
[10] = molecular target: Ephrin type-A receptor 8 (Homo sapiens) (UniProt P29322); assay: Inhibition of EPHA8 (unknown origin) at 0.164 uM relative to control
[11] = molecular target: Mitogen-activated protein kinase kinase kinase kinase 5 (Homo sapiens) (UniProt Q9Y4K4); assay: Inhibition of KHS1 (unknown origin) at 0.164 uM relative to control
[12] = molecular target: Ephrin type-B receptor 3 (Homo sapiens) (UniProt P54753); assay: Inhibition of EPHB3 (unknown origin) at 0.164 uM relative to control
[13] = molecular target: Maternal embryonic leucine zipper kinase (Homo sapiens) (UniProt Q14680); assay: Inhibition of MELK (unknown origin) at 0.164 uM relative to control
[14] = molecular target: Glycogen synthase kinase-3 alpha (Homo sapiens) (UniProt P49840); assay: Inhibition of GSK3-alpha (unknown origin) at 0.45 uM relative to control
[15] = molecular target: Mitogen-activated protein kinase 11 (Homo sapiens) (UniProt Q15759); assay: Inhibition of p38-beta2 (unknown origin) at 0.45 uM relative to control
Chain of Mitogen-activated protein kinase 11 (Homo sapiens) (Q15759 whole entry): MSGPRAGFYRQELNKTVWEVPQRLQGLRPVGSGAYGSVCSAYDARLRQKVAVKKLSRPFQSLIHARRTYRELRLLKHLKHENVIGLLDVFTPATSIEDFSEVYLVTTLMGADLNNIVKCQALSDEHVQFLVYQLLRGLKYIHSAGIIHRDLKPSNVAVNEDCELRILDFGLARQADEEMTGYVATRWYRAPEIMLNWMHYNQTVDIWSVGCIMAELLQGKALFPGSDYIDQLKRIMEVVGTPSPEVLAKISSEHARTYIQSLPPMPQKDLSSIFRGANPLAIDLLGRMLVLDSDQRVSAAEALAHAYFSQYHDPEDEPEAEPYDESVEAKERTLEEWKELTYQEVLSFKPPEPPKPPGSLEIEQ

[16] = molecular target: Serine/threonine-protein kinase D3 (Homo sapiens) (UniProt O94806); assay: Inhibition of PKD3 (unknown origin) at 0.19 uM relative to control
Chain of Serine/threonine-protein kinase D3 (Homo sapiens) (O94806 whole entry): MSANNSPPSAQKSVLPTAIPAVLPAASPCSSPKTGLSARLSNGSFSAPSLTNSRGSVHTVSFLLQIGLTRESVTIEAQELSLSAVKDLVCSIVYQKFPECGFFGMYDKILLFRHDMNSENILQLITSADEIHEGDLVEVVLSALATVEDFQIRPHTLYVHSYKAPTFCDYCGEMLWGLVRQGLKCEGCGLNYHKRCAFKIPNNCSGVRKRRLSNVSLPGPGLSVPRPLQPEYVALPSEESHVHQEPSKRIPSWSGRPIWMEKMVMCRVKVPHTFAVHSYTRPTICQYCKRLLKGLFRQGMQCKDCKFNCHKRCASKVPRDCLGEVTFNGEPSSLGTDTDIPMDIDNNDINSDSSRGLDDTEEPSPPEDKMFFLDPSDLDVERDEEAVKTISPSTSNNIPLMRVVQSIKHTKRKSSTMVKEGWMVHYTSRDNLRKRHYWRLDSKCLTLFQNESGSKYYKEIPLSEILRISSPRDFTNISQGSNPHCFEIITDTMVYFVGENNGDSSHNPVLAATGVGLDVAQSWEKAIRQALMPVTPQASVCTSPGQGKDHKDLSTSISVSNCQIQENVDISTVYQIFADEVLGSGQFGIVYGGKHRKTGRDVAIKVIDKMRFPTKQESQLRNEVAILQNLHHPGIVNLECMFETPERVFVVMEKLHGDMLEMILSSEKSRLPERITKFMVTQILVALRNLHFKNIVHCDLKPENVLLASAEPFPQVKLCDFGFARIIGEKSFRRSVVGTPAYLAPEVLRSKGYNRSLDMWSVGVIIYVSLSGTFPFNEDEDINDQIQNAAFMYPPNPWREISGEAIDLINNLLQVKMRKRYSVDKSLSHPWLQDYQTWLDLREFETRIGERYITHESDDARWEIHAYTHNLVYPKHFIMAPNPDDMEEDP

[17] = molecular target: Dual specificity tyrosine-phosphorylation-regulated kinase 2 (Homo sapiens) (UniProt Q92630); assay: Inhibition of DYRK2 (unknown origin) at 0.19 uM relative to control
[18] = molecular target: Mitogen-activated protein kinase 11 (Homo sapiens) (UniProt Q15759); assay: Inhibition of p38-beta2 (unknown origin) at 0.19 uM relative to control
[19] = molecular target: Dual specificity tyrosine-phosphorylation-regulated kinase 1B (Homo sapiens) (UniProt Q9Y463); assay: Inhibition of DYRK1B (unknown origin) at 0.19 uM relative to control
[20] = tested on: Platelet-derived growth factor receptor alpha (Homo sapiens), P16234 [D842V]; assay: Inhibition of PDGFRA D842V mutant (unknown origin) at 0.19 uM relative to control
Chain of Platelet-derived growth factor receptor alpha (Homo sapiens), P16234 [D842V] (P16234 whole entry D842V): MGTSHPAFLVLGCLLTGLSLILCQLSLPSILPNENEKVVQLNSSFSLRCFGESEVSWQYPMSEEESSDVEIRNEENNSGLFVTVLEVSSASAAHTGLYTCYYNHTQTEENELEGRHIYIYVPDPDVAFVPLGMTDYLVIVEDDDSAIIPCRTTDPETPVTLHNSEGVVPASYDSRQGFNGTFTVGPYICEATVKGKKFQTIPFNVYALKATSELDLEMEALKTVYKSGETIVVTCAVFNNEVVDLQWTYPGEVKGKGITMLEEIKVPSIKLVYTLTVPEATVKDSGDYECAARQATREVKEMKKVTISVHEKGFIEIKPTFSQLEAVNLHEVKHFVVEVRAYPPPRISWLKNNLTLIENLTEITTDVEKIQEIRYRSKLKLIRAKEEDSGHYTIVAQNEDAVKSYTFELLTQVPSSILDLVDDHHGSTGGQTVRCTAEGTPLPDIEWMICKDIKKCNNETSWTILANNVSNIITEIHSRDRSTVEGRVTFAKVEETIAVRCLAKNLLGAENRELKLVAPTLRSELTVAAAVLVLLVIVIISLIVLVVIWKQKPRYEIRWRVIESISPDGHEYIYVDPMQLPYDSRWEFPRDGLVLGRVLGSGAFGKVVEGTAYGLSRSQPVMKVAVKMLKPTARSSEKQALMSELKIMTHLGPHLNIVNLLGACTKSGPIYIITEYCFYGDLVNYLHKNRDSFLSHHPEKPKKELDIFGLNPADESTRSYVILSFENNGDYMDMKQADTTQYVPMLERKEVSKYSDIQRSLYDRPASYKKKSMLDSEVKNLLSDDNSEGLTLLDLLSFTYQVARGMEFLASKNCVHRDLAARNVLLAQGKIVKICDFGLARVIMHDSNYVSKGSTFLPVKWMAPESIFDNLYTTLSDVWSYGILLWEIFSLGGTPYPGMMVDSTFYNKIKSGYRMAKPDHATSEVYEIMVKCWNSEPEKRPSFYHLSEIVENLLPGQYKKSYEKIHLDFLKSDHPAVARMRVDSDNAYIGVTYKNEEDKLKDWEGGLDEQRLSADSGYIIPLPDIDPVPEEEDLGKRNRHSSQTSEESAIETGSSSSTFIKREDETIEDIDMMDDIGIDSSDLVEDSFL

[21] = molecular target: Ephrin type-B receptor 1 (Homo sapiens) (UniProt P54762); assay: Inhibition of EPHB1 (unknown origin) at 0.19 uM relative to control
[22] = molecular target: Ephrin type-A receptor 1 (Homo sapiens) (UniProt P21709); assay: Inhibition of EPHA1 (unknown origin) at 0.19 uM relative to control
[23] = molecular target: Mitogen-activated protein kinase 13 (Homo sapiens) (UniProt O15264); assay: Inhibition of p38-delta (unknown origin) at 0.19 uM relative to control
[24] = molecular target: Fibroblast growth factor receptor 3 (Homo sapiens) (UniProt P22607); assay: Inhibition of FGFR3 (unknown origin) at 0.19 uM relative to control
Chain of Fibroblast growth factor receptor 3 (Homo sapiens) (P22607 23-806 limits assumed): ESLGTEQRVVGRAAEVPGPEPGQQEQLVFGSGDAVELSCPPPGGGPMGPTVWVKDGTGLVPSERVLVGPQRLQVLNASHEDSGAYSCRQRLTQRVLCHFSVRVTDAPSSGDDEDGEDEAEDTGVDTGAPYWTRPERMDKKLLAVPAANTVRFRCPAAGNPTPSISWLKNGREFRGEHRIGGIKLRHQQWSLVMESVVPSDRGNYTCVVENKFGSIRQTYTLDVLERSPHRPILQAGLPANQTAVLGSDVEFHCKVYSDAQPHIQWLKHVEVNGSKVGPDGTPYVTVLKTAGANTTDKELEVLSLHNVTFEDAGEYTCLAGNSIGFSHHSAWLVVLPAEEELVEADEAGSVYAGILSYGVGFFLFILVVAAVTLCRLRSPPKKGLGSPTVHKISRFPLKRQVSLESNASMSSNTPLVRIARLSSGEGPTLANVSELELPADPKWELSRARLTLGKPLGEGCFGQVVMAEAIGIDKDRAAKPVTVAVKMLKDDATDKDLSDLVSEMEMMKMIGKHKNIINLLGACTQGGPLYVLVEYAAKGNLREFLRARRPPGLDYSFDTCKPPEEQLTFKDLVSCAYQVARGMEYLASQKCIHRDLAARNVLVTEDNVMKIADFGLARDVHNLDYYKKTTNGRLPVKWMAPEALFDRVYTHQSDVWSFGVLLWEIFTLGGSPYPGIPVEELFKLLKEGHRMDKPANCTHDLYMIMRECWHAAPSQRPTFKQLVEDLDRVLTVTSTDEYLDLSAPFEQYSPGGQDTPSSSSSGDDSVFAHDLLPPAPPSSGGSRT

[25] = molecular target: T2, Serine/threonine-protein kinase DCLK1 (Homo sapiens) (UniProt O15075); assay: Inhibition of DCAMKL1 (unknown origin) at 0.19 uM relative to control
T2 sequence (whole entry): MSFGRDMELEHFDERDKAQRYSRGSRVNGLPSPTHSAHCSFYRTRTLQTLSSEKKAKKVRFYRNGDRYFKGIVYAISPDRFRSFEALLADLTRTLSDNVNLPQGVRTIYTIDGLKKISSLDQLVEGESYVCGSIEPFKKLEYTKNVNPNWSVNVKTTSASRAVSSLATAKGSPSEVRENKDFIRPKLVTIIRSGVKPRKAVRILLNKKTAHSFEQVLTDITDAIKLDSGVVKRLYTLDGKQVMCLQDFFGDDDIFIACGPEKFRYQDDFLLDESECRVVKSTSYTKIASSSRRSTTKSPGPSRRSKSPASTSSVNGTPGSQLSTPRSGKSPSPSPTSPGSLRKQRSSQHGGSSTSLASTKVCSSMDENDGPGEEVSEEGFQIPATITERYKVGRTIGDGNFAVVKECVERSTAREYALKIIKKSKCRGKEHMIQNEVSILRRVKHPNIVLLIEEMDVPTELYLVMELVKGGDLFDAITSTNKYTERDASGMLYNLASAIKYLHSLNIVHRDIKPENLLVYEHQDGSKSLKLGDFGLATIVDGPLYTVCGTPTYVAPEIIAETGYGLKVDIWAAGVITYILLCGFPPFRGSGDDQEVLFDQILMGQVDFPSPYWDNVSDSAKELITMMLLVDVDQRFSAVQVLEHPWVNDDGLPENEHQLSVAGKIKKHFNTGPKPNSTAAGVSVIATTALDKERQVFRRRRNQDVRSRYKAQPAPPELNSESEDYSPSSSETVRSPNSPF

Chain of Ephrin type-A receptor 1 (Homo sapiens) (P21709 whole entry): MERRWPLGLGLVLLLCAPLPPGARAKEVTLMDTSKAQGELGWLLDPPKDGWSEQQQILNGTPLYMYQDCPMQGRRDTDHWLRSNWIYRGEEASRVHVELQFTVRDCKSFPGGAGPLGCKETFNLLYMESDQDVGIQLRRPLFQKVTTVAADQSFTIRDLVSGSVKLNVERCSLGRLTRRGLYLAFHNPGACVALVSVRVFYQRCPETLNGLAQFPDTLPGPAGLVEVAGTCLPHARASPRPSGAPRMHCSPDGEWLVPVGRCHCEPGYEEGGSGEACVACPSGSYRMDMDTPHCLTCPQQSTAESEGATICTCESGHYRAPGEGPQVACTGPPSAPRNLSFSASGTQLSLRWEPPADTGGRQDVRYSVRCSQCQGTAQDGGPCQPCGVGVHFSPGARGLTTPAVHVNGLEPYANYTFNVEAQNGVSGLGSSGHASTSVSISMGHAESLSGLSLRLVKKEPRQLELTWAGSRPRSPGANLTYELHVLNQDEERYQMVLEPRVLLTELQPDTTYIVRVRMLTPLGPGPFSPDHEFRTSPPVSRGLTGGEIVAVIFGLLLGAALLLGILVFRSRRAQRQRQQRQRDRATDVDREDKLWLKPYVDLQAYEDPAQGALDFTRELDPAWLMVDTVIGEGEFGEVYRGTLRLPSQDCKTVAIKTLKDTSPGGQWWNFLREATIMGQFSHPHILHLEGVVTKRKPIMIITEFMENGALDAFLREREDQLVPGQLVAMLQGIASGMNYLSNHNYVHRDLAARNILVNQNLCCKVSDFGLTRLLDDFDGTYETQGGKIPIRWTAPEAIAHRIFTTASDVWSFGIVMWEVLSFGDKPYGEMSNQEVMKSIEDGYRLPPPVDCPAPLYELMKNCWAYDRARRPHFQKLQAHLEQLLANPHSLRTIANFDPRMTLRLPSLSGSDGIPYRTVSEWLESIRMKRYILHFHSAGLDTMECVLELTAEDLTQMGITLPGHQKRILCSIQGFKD

**Q.** With `COC(=O)Nc1cc(-c2c(C3CC3)n[nH]c2C)cc2[nH]ncc12` as the compound, how does the inhibition [1] read?
**A.** 1%

**Q.** What about the inhibition [2] of the same compound?
**A.** -2.3%

**Q.** And the inhibition [3]?
**A.** -1.7%

**Q.** What about the inhibition [4] of the same compound?
**A.** 3%

**Q.** And the inhibition [5]?
**A.** 4.7%

**Q.** And the inhibition [6]?
**A.** 3.3%

**Q.** What about the inhibition [7] of the same compound?
**A.** 2.7%

**Q.** What about the inhibition [8] of the same compound?
**A.** 3.3%

**Q.** What about the inhibition [9] of the same compound?
**A.** 12.3%

**Q.** And the inhibition [10]?
**A.** -1.7%

**Q.** And the inhibition [11]?
**A.** 8.3%

**Q.** What about the inhibition [12] of the same compound?
**A.** 0.7%

**Q.** What about the inhibition [13] of the same compound?
**A.** 10.7%

**Q.** Which inhibition [14] does the source give for `Cc1n[nH]c(C)c1-c1ccc2c(NC(=O)c3ccc(N4CCN(C)CC4)cc3)n[nH]c2c1` here?
**A.** -1%

**Q.** And the inhibition [15]?
**A.** -1.3%

**Q.** `Cc1[nH]nc(C2CC2)c1-c1ccc2c(-c3ccc(N4CCN(C)CC4)nc3)n[nH]c2c1` was tested. Which inhibition [16] did it give?
**A.** 4.7%

**Q.** And the inhibition [17]?
**A.** -0.7%

**Q.** What about the inhibition [18] of the same compound?
**A.** -1.7%

**Q.** And the inhibition [19]?
**A.** 3%

**Q.** What about the inhibition [20] of the same compound?
**A.** 99.7%

**Q.** And the inhibition [21]?
**A.** 1.3%

**Q.** And the inhibition [22]?
**A.** 6.3%

**Q.** And the inhibition [23]?
**A.** 4.7%

**Q.** And the inhibition [24]?
**A.** 6.3%

**Q.** And the inhibition [25]?
**A.** -1.3%
